The values below come from patent US9285319B2, “Nucleic acid base analogs with quenching and fluorescent activities and applications thereof” (RIKEN, priority 2010, dated 2016).

For assay [1], the target named is T1, Klenow fragment not having exonuclease activity (KF exo−) (Escherichia coli, UniProt P00582, D355A/E357A).
T1 construct: a Klenow fragment not having exonuclease activity; purchased Amersham USB
It is filed as biochemical. To be noted: for Km / Vmax: 37° C., SD in parentheses. As for the experimental part:
An experiment of single-base incorporation by a Klenow fragment was performed with reference to documents (Kimoto, M., Yokoyama, S., Hirao, I., Biotechnol. Lett., 2004, 26, 999-1005; Petruska, J., Goodman, M. F., Boosalis, M. S., Sowers, L. C., Cheong, C., Tinoco, I., Proc. Natl. Acad. Sci. USA, 1988, 85, 6252-6256; Goodman, M. F., Creighton, S., Bloom, L. B., Petruska, J., Crit. Rev. Biochem. Mol. Biol., 1993, 28, 83-126; Morales, J. C., Kool, E. T., Nat. Struct. Biol., 1998, 5, 950-954).
Specifically, a primer (20-mer, 5′-[…]-3′ (SEQ ID NO: 4) or 5′-[…]-3′ (SEQ ID NO: 5)) labeled with 6-carboxyfluorescein at the 5′ end and a template DNA (35-mer, 5′-AGCTCTDss[…]-3′ (SEQ ID NO: 6) or 5′-[…]-3′ (N=Pn, A, G, C, or T) (SEQ ID NO: 7)) were heated in a 100 mM Tris-HCl buffer (pH 7.5) containing 20 mM MgCl2, 2 mM DTT, and 100 μg/mL bovine serum albumin (BSA) at 95° C. and were then gradually cooled to 4° C. for annealing to form a double strand of the template and the primer.
An enzyme solution (2 μL) of a Klenow fragment not having exonuclease activity (KF exo−, Amersham USB) was added to 5 μL of each primer-template double-stranded DNA solution (10 μM). The mixture was incubated at 37° C. for 2 minutes to form a DNA/enzyme complex. To this solution, 3 μL of each substrate solution, i.e., nucleoside triphosphate solution (Dss, Pn, or one of A, G, C, and T, 1 μM to 5 mM) was added, followed by an enzyme reaction at 37° C. (for 1 to 35 minutes). The reaction was terminated by adding 10 μL of a 20 mM EDTA solution in 95% formamide (stop solution) to the reaction solution and heating the solution at 75° C. for 3 minutes.
The reaction conditions are summarized as follows. For each solution (10 μL), 5 μM primer-template double strand, 5 to 50 nM enzyme, and 0.3 to 1500 μM substrate are used. The solution (10 μL) contains 50 mM Tris-HCl (pH 7.5), 10 mM MgCl2, 1 mM DTT, and 0.05 mg/mL BSA. The reaction is performed at 37° C. for 1 to 35 minutes.
A part of the reaction solution was diluted with the stop solution, and 0.5 μL of the diluted reaction solution was mixed with 3 μL of a loading solution (deionized formamide: 50 mg/mL blue dextran solution containing 25 mM EDTA=5:1). The solution mixture was heated at 90° C. for 2 minutes and then was rapidly cooled on ice. About 0.5 μL of the solution was loaded on every other lane of a sequencing gel for electrophoresis. The sequencing gel (36 cm WTR) was composed of 6 M urea, 10% polyacrylamide (acrylamide:bisacrylamide=19:1), and 0.5×TBE. The buffer used for the electrophoresis was 0.5×TBE. The Run Module was GS Run 36C-2400. The time for electrophoresis was about 1 hour, and the peak patterns of the reaction products were analyzed and quantitatively measured by an automated ABI377 DNA sequencer equipped with GeneScan software (version 3.0).
The proportion of the primer extended by one nucleotide was determined from the peak area of the unreacted primer fragment and the peak area of the DNA fragment extended by single-base incorporation, and enzymatic parameters Vmax and KM were calculated by Hanes-Woolf plot (Goodman, M. F., Creighton, S., Bloom, L. B., Petruska, J., Crit. Rev. Biochem. Mol. Biol., 1993, 28, 83-126). The Vmax value was standardized to 20 nM enzyme concentration and 5 μM double strand concentration for various enzyme and double-strand concentrations used.

Assay [2] can be described thus: Fluorescence intensity of fluorescent molecule (Cy3) linked to Px base having a quenching activity. It is filed as physicochemical. To be noted: free substrate.
[3] abbreviates: template N = Dss, primer 5′-[…].
The mark [4] stands for this setting: template N = T, primer 5′-ACTCACTATAGGGAGCTTCT
[5] abbreviates: template N = A, primer 5′-ACTCACTATAGGGAGGAAGA

Like-named read-outs stand apart in the source and are kept apart here.

T1 sequence (P00582 324-928 D355A/E357A): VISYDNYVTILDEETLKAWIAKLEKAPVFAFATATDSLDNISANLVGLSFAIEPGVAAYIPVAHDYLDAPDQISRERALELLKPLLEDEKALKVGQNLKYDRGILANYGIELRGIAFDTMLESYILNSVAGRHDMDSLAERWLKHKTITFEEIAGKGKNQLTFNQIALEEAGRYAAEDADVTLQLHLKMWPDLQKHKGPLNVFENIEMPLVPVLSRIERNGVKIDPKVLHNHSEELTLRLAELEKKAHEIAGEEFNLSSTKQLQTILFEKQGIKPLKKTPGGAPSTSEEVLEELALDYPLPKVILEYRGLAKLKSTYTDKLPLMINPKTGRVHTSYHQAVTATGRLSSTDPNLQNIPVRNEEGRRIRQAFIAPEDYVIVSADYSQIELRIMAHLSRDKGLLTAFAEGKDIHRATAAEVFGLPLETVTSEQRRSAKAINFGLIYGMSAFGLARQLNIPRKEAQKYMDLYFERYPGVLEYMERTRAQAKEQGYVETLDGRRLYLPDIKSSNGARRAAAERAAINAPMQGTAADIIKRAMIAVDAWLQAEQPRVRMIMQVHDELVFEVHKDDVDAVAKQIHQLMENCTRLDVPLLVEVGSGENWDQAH

Take `O=[N+]([O-])c1cccn1[C@H]1C[C@H](O)[C@@H](COP(=O)(O)OP(=O)(O)OP(=O)(O)O)O1` [dPnTP]: in assay [1] (setting [3]), the “Efficiency (Vmax/KM)” value is listed as 1.1 × 10^5 % min^−1 M^−1, the Km was determined as 100 µM and the Vmax is listed as 11 (3) % min^−1.
As for `Nc1ncnc2c1ncn2[C@H]1C[C@H](O)[C@@H](COP(=O)(O)OP(=O)(O)OP(=O)(O)O)O1` [dATP, deoxyriboadenosine triphosphate], in assay [1] (setting [4]), the “Efficiency (Vmax/KM)” value is 4.0 × 10^6 % min^−1 M^−1, the Km came to 0.81 µM and the Vmax is 3.3 (1.8) % min^−1.
For the molecule deoxyribothymidine triphosphate [dTTP], in assay [1] (setting [5]), the “Efficiency (Vmax/KM)” value is given as 4.0 × 10^6 % min^−1 M^−1, the Km was 0.7 µM and the Vmax was 2.8 (1.5) % min^−1.
Consider “1-(2-deoxy-β-D-ribofuranosyl-4-[3-(Cy3-carboxamide hexanamide)-1-propynyl]-2-nitropyrrole 5′-triphosphate [Cy3-hx-dPxTP]”, for which, in assay [2], the “fluorescence intensity of fluorescent molecule quenched when linked to Px base” value is “about 30%”.
